The test system of one assay is MMP-9. Nature of the assay: MMP-9 activity, MMP colorimetric drug discovery kit. To be noted: 1.3 μM, 37°C 1 hour, 412 nm; three independent experiments. The class given is biochemical. The method, then:
(§1) The activity of MMPs was measured using MMP colorimetric drug discovery kits in a 96-well microtiter plate according to the manufacturer’s instructions. Different concentrations of the phosphinic peptides or 1.3 μM N-Isobutyl-N-(4-methoxyphenylsulfonyl)glycyl hydroxamic acid (NNGH), a positive inhibitor for MMPs, were, respectively, added to the assay mixtures containing MMP enzyme (MMP-2 or MMP-9; 9 mU/μL). The plates were then incubated at 37°C for 1 hour for enzyme reaction. After that, a final concentration of 100 μM colorimetric substrate (Ac-PLG-[2-mercapto-4-methyl-pentanoyl]-LGOC2H5) was added to each well and the plates were then read at 412 nm every minute for at least 20 minutes using PHERAStar FS microplate reader. The full enzyme activity (control) was measured without addition of any inhibitor or tested peptides. The reaction velocity (V) was determined by calculating the slope of the fitted line to the linear portion of the data collected. The slope of blank (without addition of MMP enzyme) was subtracted from all samples and the remaining activity of the enzyme was calculated using following formula.
(§2) %Enzymeactivity=V(inhibitor)/V(control)*100
(§3) Fig 7 Effect of KP phosphinic peptides on MMP-2 (A) or MMP-9 (B) enzyme activity. […] The maximum activity (control) was measured in the absence of inhibitors. […]

The subject of the next assay is MMP-2. Nature of the assay: MMP-2 activity, MMP colorimetric drug discovery kit. The assay is classed as biochemical. Particulars: 1.3 μM, 37°C 1 hour, 412 nm; three independent experiments. The method, then:
as §1, §2, §3

The test system of a further assay is cancer cell metastasis. Particulars: ref [17]; cited from earlier work. An excerpt: KPs inhibit metastasis in a variety of cancers, including melanoma, breast, endometrial, gastric ovarian cancers, and others. Therefore, KP analogues may act as inhibitors of cancer metastasis which is the major cause of cancer death.

Ends that are not written are not given here.

With `COc1ccc(S(=O)(=O)N(CC(=O)NO)CC(C)C)cc1` [NNGH, N-Isobutyl-N-(4-methoxyphenylsulfonyl)glycyl hydroxamic acid], the “inhibition of MMP-9 activity by positive control” value in the assay with MMP-9 is on record as “almost completely inhibited”. Further, the “inhibition of MMP-2 activity by positive control” value with MMP-2 is recorded as “almost completely inhibited”. As for “KP-54: endogenous 54-amino acid peptide ligand of kisspeptin receptor (GTSLSPPPESSGSPQQPGLSAPHSRQIPAPQGAVLVQREKDLPNYNWNSFGLRF; ends and bridges not checked; UniProt Q15726 68-121, looked up)”, the “inhibition of cancer cell metastasis” value with cancer cell metastasis is reported as “inhibit cancer cell metastasis”.

The values are drawn from article PMC5882139, “Functional examination of novel kisspeptin phosphinic peptides” (PLoS ONE, 2018).
